According to patent US9446127B2, “Compositions including androgen receptor degradation (ARD) enhancers and methods of prophylactic or therapeutic treatment of skin disorders and hair loss” (AndroScience Corporation, priority 2007, dated 2016):

What was measured:
skin wounds = assay: Skin wound healing in Balb/c mice; assay type: in vivo; conditions: cream 25 uM twice per day
Protocol: The ability of ASC-J9 to hasten wound healing in an animal model was tested using Balb/c mice. Using a skin puncher, wounds were created near the back of the neck region on retired male breeder Balb/c mice. Mice were treated with either an ASC-J9 cream (25 uM) or a vehicle control cream twice per day topically at the wound site.

androgen receptor (AR) [1] = molecular target: T1, androgen receptor (AR) (Homo sapiens, UniProt P10275, T878A); assay: Western blot analysis of AR expression in LNCaP cells; assay type: cell-based
T1 construct: endogenous in cells; host or cells: LNCaP
T1 sequence (P10275 1-920 T878A): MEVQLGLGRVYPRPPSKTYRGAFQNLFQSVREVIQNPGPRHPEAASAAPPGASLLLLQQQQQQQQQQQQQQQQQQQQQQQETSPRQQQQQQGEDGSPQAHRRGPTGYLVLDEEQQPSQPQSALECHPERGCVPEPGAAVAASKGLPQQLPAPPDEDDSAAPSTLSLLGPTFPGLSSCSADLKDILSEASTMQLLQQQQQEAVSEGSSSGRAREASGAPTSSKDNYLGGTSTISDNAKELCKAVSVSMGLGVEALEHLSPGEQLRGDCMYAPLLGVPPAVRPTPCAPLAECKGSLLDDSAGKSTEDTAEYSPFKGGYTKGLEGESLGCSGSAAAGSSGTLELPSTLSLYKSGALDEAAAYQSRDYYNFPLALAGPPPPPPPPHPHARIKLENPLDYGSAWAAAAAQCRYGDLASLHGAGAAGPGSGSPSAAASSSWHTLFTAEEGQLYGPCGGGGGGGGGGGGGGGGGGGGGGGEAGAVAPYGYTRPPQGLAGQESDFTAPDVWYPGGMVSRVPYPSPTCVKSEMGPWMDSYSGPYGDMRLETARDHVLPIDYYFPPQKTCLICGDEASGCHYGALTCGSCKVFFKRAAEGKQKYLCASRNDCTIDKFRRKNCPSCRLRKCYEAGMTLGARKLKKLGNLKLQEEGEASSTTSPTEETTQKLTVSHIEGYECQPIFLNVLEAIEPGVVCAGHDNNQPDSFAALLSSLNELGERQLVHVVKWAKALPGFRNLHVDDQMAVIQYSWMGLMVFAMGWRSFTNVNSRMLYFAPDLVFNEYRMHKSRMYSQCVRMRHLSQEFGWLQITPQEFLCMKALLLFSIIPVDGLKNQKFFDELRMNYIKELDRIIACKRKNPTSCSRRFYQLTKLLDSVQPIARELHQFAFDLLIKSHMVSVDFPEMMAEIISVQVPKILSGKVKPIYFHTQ
Text: Briefly, cells (for example, LNCap cells) are harvested either in 2× sodium dodecyl sulfate (SDS) loading buffer or in radioimmunoprecipitation assay (RIPA) lysis buffer (see “Antibodies: A Laboratory Manual”, E. Harlow and D. Lane, Cold Spring Harbor Laboratory, 1988) containing 10 micrograms/milliliter of benzamidine, 10 micrograms/milliliter of trypsin inhibitor, and 1 millimolar of phenylmethylsulfonyl fluoride (PMSF). Total protein (40 micrograms/sample, or as desired) from cell lysate is separated on a SDS-PAGE gel. After separation, proteins are transferred from the gel to a nitrocellulose membrane following standard Western blot procedures. The membrane is blocked with a suitable blocking agent (such as 10% non-fat milk in phosphate-buffered saline supplemented with 0.1% Tween-20 (PBST)) to reduce non-specific binding overnight. The membrane is incubated with a suitable primary antibody specific for human AR (for example, anti-human AR from BD-PharMingen) at 4 degrees Celsius overnight or at room temperature for 2 hours. […] The membrane is rinsed with PBST, and a suitable visualization procedure is used to detect the secondary antibody (for example, horseradish peroxidase can be detected with a colorimetric substrate or by a chemiluminescent substrate such as that provided by the enhanced chemiluminescence (ECL Plus) kit from Amersham). […] Quantification of the protein signals can be carried out by densitometry, using appropriate software (ImageJ software from the National Institutes of Health).
LNCaP cells from the above described experiment were harvested at designated times, cell lysate was prepared for Western blot analysis as described previously. A color detection method was subsequently employed to examine AR and actin protein signals in the membranes, and the resultant protein signals were quantitated by densitometry. In FIG. 4B, normalized AR signals (as relative to actin protein) are reported, which were expressed as a percentage of baseline (Day 0) value. […]
Cells were then harvested and AR protein was quantified by Western blot.

[2] = molecular target: T2, mutant androgen receptor poly Q49 (GFPARQ49) (Homo sapiens, UniProt P10275, INS80QQQQQQQQQQQQQQQQQQQQQQQQQQ); assay: Fluorescence microscopy of COS-1 cells transfected with GFPARQ49; assay type: cell-based; conditions: COS-1, 5 micromolar
T2 construct: GFP (green fluorescent protein); expressed in transfected cells; host or cells: COS-1 (monkey kidney)
T2 sequence (P10275 with tags, fused parts or gaps with the stated changes): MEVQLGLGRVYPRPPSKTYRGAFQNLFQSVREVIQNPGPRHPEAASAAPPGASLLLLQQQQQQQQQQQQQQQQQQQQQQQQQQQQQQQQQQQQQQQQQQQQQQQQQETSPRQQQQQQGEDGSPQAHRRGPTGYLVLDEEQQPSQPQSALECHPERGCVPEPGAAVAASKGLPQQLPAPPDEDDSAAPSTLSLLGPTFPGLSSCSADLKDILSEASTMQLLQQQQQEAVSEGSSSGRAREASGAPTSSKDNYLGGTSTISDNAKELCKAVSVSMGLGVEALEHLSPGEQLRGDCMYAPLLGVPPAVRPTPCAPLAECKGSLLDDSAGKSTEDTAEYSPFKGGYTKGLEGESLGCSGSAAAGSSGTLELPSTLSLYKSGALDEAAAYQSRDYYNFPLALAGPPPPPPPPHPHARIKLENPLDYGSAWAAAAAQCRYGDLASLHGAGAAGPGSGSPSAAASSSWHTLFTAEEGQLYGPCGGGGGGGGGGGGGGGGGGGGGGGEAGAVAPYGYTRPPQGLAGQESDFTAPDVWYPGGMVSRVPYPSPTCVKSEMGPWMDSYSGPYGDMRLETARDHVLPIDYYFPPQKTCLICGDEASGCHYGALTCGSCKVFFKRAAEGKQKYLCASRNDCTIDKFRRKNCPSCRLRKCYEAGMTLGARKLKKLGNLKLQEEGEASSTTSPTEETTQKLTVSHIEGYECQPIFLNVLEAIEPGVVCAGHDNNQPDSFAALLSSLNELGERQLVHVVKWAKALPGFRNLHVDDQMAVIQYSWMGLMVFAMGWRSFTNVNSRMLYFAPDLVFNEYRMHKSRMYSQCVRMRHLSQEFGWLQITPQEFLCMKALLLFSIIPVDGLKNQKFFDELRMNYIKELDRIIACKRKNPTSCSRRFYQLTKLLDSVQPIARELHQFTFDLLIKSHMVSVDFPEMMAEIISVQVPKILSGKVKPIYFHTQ
Protocol: Monkey kidney COS-1 cells were plated at a density of 3×10^4 cells per 0.5-milliliter volume onto alcohol-cleaned and sterilized cover slips placed in 35-millimeter suspension culture dishes containing Dulbecco's modified Eagle's (DME) medium containing 10% FBS. The cells were transfected with plasmids containing the wild type AR (GFPAR) or poly Q49 (plasmid GFPARQ49) mutant androgen receptor and green fluorescent protein (GFP) as a reporter. For each coverslip, 12.3 microliters SuperFect was added to 3.075 micrograms plasmid in 102.5 microliters DME medium (to give a 1:4 ratio of DNA to SuperFect reagent); the mixture was vortexed briefly, and the complex allowed to form over 15 minutes. Each mixture then received 897 microliters CD/DME and was mixed gently. The resulting 1-milliliter volumes were added to the dishes containing the coverslips (final plasmid concentration was […] per dish). Cells were allowed to incubate with the transfection solution for 5 hours, then the medium was changed to fresh 1.5 milliliters CD/DME medium with either vehicle (DMSO) only added or ASC-J9 (final concentration 5 micromolar). […] The coverslips were air-dried, mounted on slides with a glycerol-based mounting agent, and stored at 4 degrees Celsius if necessary prior to observation with fluorescence microscopy. […]

androgen receptor (AR) [3] = molecular target: T1, androgen receptor (AR); assay: AR degradation in LNCaP cells in the presence of cycloheximide (Western blot); assay type: cell-based; conditions: 20 micromolar, cycloheximide 15 micrograms/milliter
Protocol: To determine whether the observed reduction of AR protein levels was due to protein degradation rather than inhibition of AR protein synthesis, a second set of three replicate experiments was performed. In these experiments, the protein synthesis inhibitor cycloheximide (CHX) was used to prevent the cells from synthesizing new proteins. In the absence of new AR protein synthesis, any alterations in AR levels would be mainly attributable to protein degradation. LNCaP cells were cultured in the presence and absence of ASC-J9 (20 micromolar) and in the presence and absence of cycloheximide (15 micrograms/milliter). Cells were then incubated for 0, 3, 6 and 12 hours before harvesting and analysis of AR levels by Western blot.

SMILES: COc1ccc(C=CC(=O)C=C(O)C=Cc2ccc(OC)c(OC)c2)cc1OC [ASC-J9, 5-hydroxy-1,7-bis(3,4-dimethoxyphenyl)-1,4,6-heptatrien-3-one]
- wound size (skin wounds; day 5, vs vehicle): smaller wound size
- wound healing (skin wounds; day 10): completely healed
- time at which AR reduction was first observed (androgen receptor (AR) [1]; 5 μM, continuous incubation): 2 days
- AR remaining, normalized AR signal as percentage of baseline (Day 0) (androgen receptor (AR) [1]; 5 μM, end of 5-day incubation): ~10%
- AR protein, ARD enhancer compared with conventional anti-androgens (androgen receptor (AR) [1]; 48 hours, Western blot (FIG. 7B)): decreased AR protein
- fluorescent inclusions or aggregates of mutant poly Q49 AR [2]: substantially smaller amounts of fluorescent inclusions
- time within which degradation of existing AR protein was enhanced (androgen receptor (AR) [3]): ≤ 4 h
